Experimental data taken from ChEMBL document CHEMBL3745645, “Synthesis, in vitro antitumor activity, dihydrofolate reductase inhibition, DNA intercalation and structure-activity relationship studies of 1,3,5-triazine analogues” (Bioorg Med Chem Lett, 2016).
The source made the active and inactive calls. The calls are words filed in the database; no cut-off is given here.

Columns and labels:
Format in all cases: functional
[1] = Cytotoxicity against human LOXIMVI cells at 10 uM after 48 hrs by SRB assay; conditions: LOX IMVI, read-out: GI
[2] = Cytotoxicity against human UACC62 cells at 10 uM after 48 hrs by SRB assay; conditions: UACC-62, 48 h, read-out: GI
[3] = Cytotoxicity against human HOP92 cells at 10 uM after 48 hrs by SRB assay; conditions: HOP-92, 48 h, read-out: GI
[4] = Cytotoxicity against human UACC257 cells at 10 uM after 48 hrs by SRB assay; conditions: UACC-257, 48 h, read-out: GI
[5] = Cytotoxicity against human TK10 cells at 10 uM after 48 hrs by SRB assay; conditions: TK-10, 48 h, read-out: GI
ACHN = experiment: Cytotoxicity against human ACHN cells at 10 uM after 48 hrs by SRB assay; conditions: read-out: GI
[6] = Cytotoxicity against human MOLT4 cells at 10 uM after 48 hrs by SRB assay; conditions: MOLT-4, 48 h, read-out: GI
SK-MEL-5 = experiment: Cytotoxicity against human SK-MEL-5 cells at 10 uM after 48 hrs by SRB assay; conditions: SK-MEL-5, 48 h, read-out: GI
[7] = Cytotoxicity against human BT549 cells at 10 uM after 48 hrs by SRB assay; conditions: BT-549, 48 h, read-out: GI
[8] = Cytotoxicity against human SW620 cells at 10 uM after 48 hrs by SRB assay; conditions: SW-620, 48 h, read-out: GI
NCI-H226 = experiment: Cytotoxicity against human NCI-H226 cells at 10 uM after 48 hrs by SRB assay; conditions: NCI-H226, 48 h, read-out: GI
MDA-MB-468 = experiment: Cytotoxicity against human MDA-MB-468 cells at 10 uM after 48 hrs by SRB assay; conditions: MDA-MB-468, 48 h, read-out: GI
KM12 = experiment: Cytotoxicity against human KM12 cells at 10 uM after 48 hrs by SRB assay; conditions: KM12, 48 h, read-out: GI
T47D = experiment: Cytotoxicity against human T47D cells at 10 uM after 48 hrs by SRB assay; conditions: read-out: GI
SR = experiment: Cytotoxicity against human SR cells at 10 uM after 48 hrs by SRB assay; conditions: read-out: GI
786-0 = experiment: Cytotoxicity against human 786-0 cells at 10 uM after 48 hrs by SRB assay; conditions: 786-0, 48 h, read-out: GI
[9] = Cytotoxicity against human HCC2998 cells at 10 uM after 48 hrs by SRB assay; conditions: HCC 2998, 48 h, read-out: GI
[10] = Cytotoxicity against human UO31 cells at 10 uM after 48 hrs by SRB assay; conditions: UO-31, 48 h, read-out: GI
[11] = Cytotoxicity against human OVCAR8 cells at 10 uM after 48 hrs by SRB assay; conditions: OVCAR-8, 48 h, read-out: GI
[12] = Cytotoxicity against human DU145 cells at 10 uM after 48 hrs by SRB assay; conditions: DU-145, 48 h, read-out: GI
[13] = Cytotoxicity against human HCT116 cells at 10 uM after 48 hrs by SRB assay; conditions: HCT-116, 48 h, read-out: GI
[14] = Cytotoxicity against human SNB75 cells at 10 uM after 48 hrs by SRB assay; conditions: SNB-75, 48 h, read-out: GI
[15] = Cytotoxicity against human SF268 cells at 10 uM after 48 hrs by SRB assay; conditions: SF-268, 48 h, read-out: GI
A498 = experiment: Cytotoxicity against human A498 cells at 10 uM after 48 hrs by SRB assay; conditions: A498, 48 h, read-out: GI
[16] = Cytotoxicity against human OVCAR4 cells at 10 uM after 48 hrs by SRB assay; conditions: OVCAR-4, 48 h, read-out: GI
A549 = experiment: Cytotoxicity against human A549 cells at 10 uM after 48 hrs by SRB assay; conditions: A549, 48 h, read-out: GI
SK-MEL-28 = experiment: Cytotoxicity against human SK-MEL-28 cells at 10 uM after 48 hrs by SRB assay
NCI-H460 = experiment: Cytotoxicity against human NCI-H460 cells at 10 uM after 48 hrs by SRB assay; conditions: NCI-H460, 48 h, read-out: GI
[17] = Cytotoxicity against human NCI-ADR-RES cells at 10 uM after 48 hrs by SRB assay; conditions: read-out: GI
[18] = Cytotoxicity against human SF295 cells at 10 uM after 48 hrs by SRB assay; conditions: SF-295, 48 h, read-out: GI
NCI-H522 = experiment: Cytotoxicity against human NCI-H522 cells at 10 uM after 48 hrs by SRB assay
M14 = experiment: Cytotoxicity against human M14 cells at 10 uM after 48 hrs by SRB assay
[19] = Cytotoxicity against human PC3 cells at 10 uM after 48 hrs by SRB assay; conditions: PC-3, 48 h, read-out: GI
MDA-MB-231 = experiment: Cytotoxicity against human MDA-MB-231 cells at 10 uM after 48 hrs by SRB assay; conditions: MDA-MB-231, 48 h, read-out: GI
[20] = Cytotoxicity against human SKOV3 cells at 10 uM after 48 hrs by SRB assay; conditions: SK-OV-3, 48 h, read-out: GI
SN12C = experiment: Cytotoxicity against human SN12C cells at 10 uM after 48 hrs by SRB assay; conditions: read-out: GI
HT-29 = experiment: Cytotoxicity against human HT-29 cells at 10 uM after 48 hrs by SRB assay; conditions: HT-29, 48 h, read-out: GI
[21] = Cytotoxicity against human IGROV1 cells at 10 uM after 48 hrs by SRB assay; conditions: IGROV-1, 48 h, read-out: GI
[22] = Cytotoxicity against human HCT15 cells at 10 uM after 48 hrs by SRB assay; conditions: HCT-15, 48 h, read-out: GI
SK-MEL-2 = experiment: Cytotoxicity against human SK-MEL-2 cells at 10 uM after 48 hrs by SRB assay
[23] = Cytotoxicity against human HOP62 cells at 10 uM after 48 hrs by SRB assay; conditions: HOP-62, 48 h, read-out: GI
[24] = Cytotoxicity against human OVCAR3 cells at 10 uM after 48 hrs by SRB assay; conditions: OVCAR-3, 48 h, read-out: GI
MDA-MB-435 = experiment: Cytotoxicity against human MDA-MB-435 cells at 10 uM after 48 hrs by SRB assay; conditions: MDA-MB-435, 48 h, read-out: GI
[25] = Cytotoxicity against human OVCAR5 cells at 10 uM after 48 hrs by SRB assay; conditions: OVCAR-5, 48 h, read-out: GI
[26] = Cytotoxicity against human Hs 578T cells at 10 uM after 48 hrs by SRB assay; conditions: read-out: GI
[27] = Cytotoxicity against human RPMI8226 cells at 10 uM after 48 hrs by SRB assay; conditions: RPMI-8226, 48 h, read-out: GI
Malme-3M = experiment: Cytotoxicity against human MALME-3M cells at 10 uM after 48 hrs by SRB assay
[28] = Cytotoxicity against human HL-60(TB) cells at 10 uM after 48 hrs by SRB assay; conditions: HL-60, 48 h, read-out: GI
[29] = Cytotoxicity against human RXF393 cells at 10 uM after 48 hrs by SRB assay; conditions: RXF 393, 48 h, read-out: GI
[30] = Cytotoxicity against human SF539 cells at 10 uM after 48 hrs by SRB assay; conditions: SF-539, 48 h, read-out: GI
[31] = Cytotoxicity against human Caki1 cells at 10 uM after 48 hrs by SRB assay; conditions: CAKI-1, 48 h, read-out: GI
COLO 205 = experiment: Cytotoxicity against human COLO205 cells at 10 uM after 48 hrs by SRB assay
CCRF-CEM = experiment: Cytotoxicity against human CCRF-CEM cells at 10 uM after 48 hrs by SRB assay; conditions: read-out: GI
[32] = Cytotoxicity against human SNB19 cells at 10 uM after 48 hrs by SRB assay; conditions: SNB-19, 48 h, read-out: GI
MCF7 = experiment: Cytotoxicity against human MCF7 cells at 10 uM after 48 hrs by SRB assay; conditions: MCF7, 48 h, read-out: GI
K562 = experiment: Cytotoxicity against human K562 cells at 10 uM after 48 hrs by SRB assay; conditions: K562, 48 h, read-out: GI

Q: For `Cc1nc2cc(Nc3nc(Cl)nc(Nc4ccc(F)cc4)n3)ccc2n1Cc1ccccc1`, which inhibition of growth at 10 µM [1] is on record?
A: 56.7%

Q: And the inhibition of growth at 10 µM [2]?
A: 17.6%

Q: And the inhibition of growth at 10 µM [3]?
A: 49.3%

Q: What about the inhibition of growth at 10 µM [4] of the same compound?
A: 10.3%

Q: And the inhibition of growth at 10 µM [5]?
A: 41.5%

Q: What about the inhibition of growth at 10 µM (ACHN) of the same compound?
A: 63.8%

Q: And the inhibition of growth at 10 µM [6]?
A: 9.41%

Q: What about the inhibition of growth at 10 µM (SK-MEL-5) of the same compound?
A: 7.59%

Q: What about the inhibition of growth at 10 µM [7] of the same compound?
A: 9.39%

Q: And the inhibition of growth at 10 µM [8]?
A: 15.2%

Q: And the inhibition of growth at 10 µM (NCI-H226)?
A: 19.6%

Q: What about the inhibition of growth at 10 µM (MDA-MB-468) of the same compound?
A: 23.8%

Q: And the inhibition of growth at 10 µM (KM12)?
A: 30.8%

Q: What about the inhibition of growth at 10 µM (T47D) of the same compound?
A: 43%

Q: And the inhibition of growth at 10 µM (SR)?
A: 42.5%

Q: And the inhibition of growth at 10 µM (786-0)?
A: 67%

Q: And the inhibition of growth at 10 µM [9]?
A: 5.54%

Q: And the inhibition of growth at 10 µM [10]?
A: 19.3%

Q: What about the inhibition of growth at 10 µM [11] of the same compound?
A: 18.5%

Q: What about the inhibition of growth at 10 µM [12] of the same compound?
A: 36%

Q: What about the inhibition of growth at 10 µM [13] of the same compound?
A: 96.1%

Q: What about the inhibition of growth at 10 µM [14] of the same compound?
A: 10%

Q: What about the inhibition of growth at 10 µM [15] of the same compound?
A: 8.93%

Q: What about the inhibition of growth at 10 µM (A498) of the same compound?
A: 30.6%

Q: What about the inhibition of growth at 10 µM [16] of the same compound?
A: 14.2%

Q: And the inhibition of growth at 10 µM (A549)?
A: 13.3%

Q: What about the “growth inhibition (GI)” value (SK-MEL-28) of the same compound?
A: inactive

Q: What about the inhibition of growth at 10 µM (NCI-H460) of the same compound?
A: 12%

Q: And the inhibition of growth at 10 µM [17]?
A: 4.36%

Q: And the inhibition of growth at 10 µM [18]?
A: 3.61%

Q: What about the “growth inhibition (GI)” value (NCI-H522) of the same compound?
A: Active

Q: And the “growth inhibition (GI)” value (M14)?
A: inactive

Q: What about the inhibition of growth at 10 µM [19] of the same compound?
A: 21.2%

Q: And the inhibition of growth at 10 µM (MDA-MB-231)?
A: 17.9%

Q: And the inhibition of growth at 10 µM [20]?
A: 4.12%

Q: And the inhibition of growth at 10 µM (SN12C)?
A: 22.1%

Q: What about the inhibition of growth at 10 µM (HT-29) of the same compound?
A: 5.46%

Q: And the inhibition of growth at 10 µM [21]?
A: 17%

Q: What about the inhibition of growth at 10 µM [22] of the same compound?
A: 27.9%

Q: What about the “growth inhibition (GI)” value (SK-MEL-2) of the same compound?
A: inactive

Q: What about the inhibition of growth at 10 µM [23] of the same compound?
A: 11.6%

Q: What about the inhibition of growth at 10 µM [24] of the same compound?
A: 5.75%

Q: What about the inhibition of growth at 10 µM (MDA-MB-435) of the same compound?
A: 4.44%

Q: What about the inhibition of growth at 10 µM [25] of the same compound?
A: 3.73%

Q: What about the inhibition of growth at 10 µM [26] of the same compound?
A: 20.5%

Q: And the inhibition of growth at 10 µM [27]?
A: 84.7%

Q: And the “growth inhibition (GI)” value (Malme-3M)?
A: inactive

Q: And the inhibition of growth at 10 µM [28]?
A: 46.8%

Q: What about the inhibition of growth at 10 µM [29] of the same compound?
A: 22.9%

Q: And the inhibition of growth at 10 µM [30]?
A: 29.8%

Q: And the inhibition of growth at 10 µM [31]?
A: 12.3%

Q: What about the “growth inhibition (GI)” value (COLO 205) of the same compound?
A: inactive

Q: And the inhibition of growth at 10 µM (CCRF-CEM)?
A: 21.5%

Q: And the inhibition of growth at 10 µM [32]?
A: 7.64%

Q: And the inhibition of growth at 10 µM (MCF7)?
A: 38.5%

Q: And the inhibition of growth at 10 µM (K562)?
A: 14.8%
